Data set [1] can be described thus: Solubility of each compound in water. Format: physicochemical. From the text: Further, the solubility (%) of each compound in water was also estimated.
The subject of a further data set is IgE antibody production. Kind of data set: Evaluation of IgE antibody production inhibiting activity (B cells + LPS + mouse IL-4, IgE in culture supernatant by ELISA). To be noted: B-cell, mouse (Balb/C) spleen B cells, LPS 1 day then mouse IL-4 6 days. Format: cell-based. As for the experimental part: Test 1 (Evaluation of IgE Antibody Production Inhibiting Activity)
From a mouse (Balb/C, male, 8 weeks old), the spleen was enucleated. The spleen was shredded in 10% FEB/RPMI 1640, and was then disintegrated into single cells through a 70-mesh screen. Those single cells were hemolyzed with Gey's solution, and using RPMI 1640 medium/25 mM HEPES/0.3% BSA, a spleen cell suspension (1×10^7 cells/mL) was prepared. After an aliquot of the suspension was reacted with a rat anti-mouse Thy-1.2 monoclonal antibody (product of Cedarlane Laboratories Limited) at 4° C. for 1 hour, centrifugation was conducted. Precipitated cells were suspended again (1×10^7 cells/mL, RPMI/HEPES/BSA). After the suspension was next reacted with a low-cytotoxic rabbit complement (product of Cedarlane Laboratories Limited) at 37° C. for 1 hour, dead cells were removed by specific gravity centrifugation using Lympholyte M (product of Cedarlane Laboratories Limited) so that a B cell fraction was obtained as viable cells.
Using a 96-well plate, the B cells (2×10^5 cells/0.2 mL/well) were incubated together with LPS (E. coli 026:B6, product of DIFCO Laboratories, Inc.) for 1 day. Mouse IL-4 (product of Genzyme Corp.) was then added, followed by further incubation for 6 days.
The IgE antibody production inhibiting activity of each drug was calculated by adding the drug Day 1 of the incubation and assaying the quantity of IgE in the culture supernatant by ELISA after the incubation.
(In general: In an ELISA, binding on a coated surface is turned into a signal by an enzyme label.)

The mark [2] stands for this setting: solubility in 0.1M hydrochloric acid (footnote *).

Each structure is given as a SMILES string. Counter-ions that a name gives are not always drawn. Marks after values point to notes of the source that are not given here.

What is called IC50 is the point on the concentration scale where inhibition reaches its midpoint. `COc1cc(-c2ccc(N(C)CCN(C)c3ccc(-c4cc(OC)c(OC)c(OC)c4)cn3)nc2)cc(OC)c1OC` [Example 58, N,N′-Bis[5-(3,4,5-trimethoxyphenyl)-2-pyridyl]-N,N′-dimethylethylenediamine Dimethanesulfonate] returned a Water solubility in data set [1] (in water) of 5%. In addition, the IC50 in the data set on IgE antibody production turned out to be 200 nM.

For the molecule `COc1cc(-c2ccc(N3CCCN(c4ccc(-c5cc(OC)c(OC)c(OC)c5)cn4)CC3)nc2)cc(OC)c1OC` [Example 26, 1,4-Bis[5-(3,4,5-trimethoxyphenyl)-2-pyridyl]hexahydro-1,4-diazepine Dimethanesulfonate], the Water solubility in data set [1] (in water) turned out to be 5%. Also, in the data set with IgE antibody production, the IC50 is 200 nM.

`COc1cc(-c2ccc(N3CCCN(c4ccc(-c5cc(OC)c(N)c(OC)c5)cn4)CC3)nc2)cc(OC)c1N` [Example 34, 1,4-Bis[5-(4-amino-3,5-dimethoxyphenyl)-2-pyridyl]hexahydro-1,4-diazepine Tetrahydrochloride] gave a Water solubility in data set [1] (in water) of 5%. Also, the IC50 in the data set with IgE antibody production came out at 300 nM.

`COc1cc(-c2ccc(N3CCN(CCCN4CCN(c5ccc(-c6cc(OC)c(OC)c(OC)c6)cn5)CC4)CC3)nc2)cc(OC)c1OC` [Example 57, 1,3-Bis[4-[5-(3,4,5-trimethoxyphenyl)-2-pyridyl]-1-piperazinyl]propane]: in data set [1] (setting [2]), the Water solubility is listed as 5* %. Further, the IC50 in the data set on IgE antibody production was determined as 100 nM.

As for `COc1cc(-c2ccc(N3CCCN(c4ccc(-c5cc(OC)c(N(C)C)c(OC)c5)cn4)CC3)nc2)cc(OC)c1N(C)C` [Example 35, 1,4-Bis[5-(4-dimethylamino-3,5-dimethoxyphenyl)-2-pyridyl]hexahydro-1,4-diazepine], the Water solubility in data set [1] (setting [2]) was 5* %. For the same molecule, the IC50 in the data set with IgE antibody production came out at 200 nM.

The values above are taken from patent publication US6706703B2, “Bis(5-aryl-2-pyridyl) derivatives” (Kowa Co., Ltd., priority 2001, dated 2004).
